{
  "source": "patent US9308270B2",
  "about": "“Pharmaceutical composition on the basis of nanomicelles containing epigallocatechin gallate and a method of administration thereof to treat atopic dermatitis, Crohn's disease, adenomyosis, and hyperplastic diseases of the prostate gland” (NORDIC LABS LIMITED, priority 2011, dated 2016)",
  "key": {"[1]": {"assay": "Dependence of EGCG concentration in rat plasma on dose", "type": "in vivo", "conditions": "different doses, FIG. 2"}, "[2]": {"assay": "Pharmacokinetic study of EGCG in rat plasma after peroral administration", "type": "in vivo", "conditions": "for AUC0-24 hr / Cmax: rat plasma", "experimental": "Experiments were conducted on laboratory rats of Sprague-Dawley breed weighing between 250 g and 350 g. All studies on animals were conducted in accordance with “Guidelines for Care and Use of Experimental Animals,” […] At fixed time intervals (10 and 30 minutes, 1, 1.5, 2, 3, 8, and 24 hours), blood samples were drawn from the animals and, following centrifuging, plasma was drawn from the samples for analysis, refrigerated, and kept at −80° C. until it was needed for studies. For analytical studies to be conducted, the plasma samples were unfrozen, centrifuged, and divided into aliquots of 0.1 ml each. The samples were extracted three times in 2 ml of ethyl acetate for 5 minutes at constant shaking. Following extraction, the samples were centrifuged at 1,000 r.p.m. for 10 minutes. The supernatant was separated and placed in a glass tube."}, "rats": {"test_system": "rats", "assay": "Toxicity observed in the rat pharmacokinetic study", "type": "in vivo", "conditions": "peroral, maximum dose 2,500 mg/kg (G-1), without formulation", "experimental": "At fixed time intervals (10 and 30 minutes, 1, 1.5, 2, 3, 8, and 24 hours), blood samples were drawn from the animals and, following centrifuging, plasma was drawn from the samples for analysis, refrigerated, and kept at −80° C. until it was needed for studies."}, "[3]": {"conditions": "cited from earlier work"}},
  "data": [
    {"substance": "epigallocatechin-3-gallate [EGCG]", "values": [
      {"measurement": "dependence of EGCG concentration in rat plasma on dose", "setting": "[1]", "value": "nonlinear pattern and reached a plateau at the 500 mg/kg dose"},
      {"measurement": "AUC0-24 hr", "setting": "[2]; 500 mg/kg", "value": "49.23 ± 4.95", "unit": "µg·h/mL"},
      {"measurement": "Cmax", "setting": "[2]; 500 mg/kg", "value": "10650 ± 1140", "unit": "ng/mL"},
      {"measurement": "AUC0-24 hr", "setting": "[2]; 2.5 g/kg (G-1)", "value": "179.2 ± 54.33", "unit": "µg·h/mL"},
      {"measurement": "Cmax", "setting": "[2]; 2.5 g/kg (G-1)", "value": "58600 ± 22400", "unit": "ng/mL"},
      {"measurement": "EGCG concentration level in plasma", "setting": "[2]; rat, 100 mg/kg (G-5)", "value": "below LOQ"},
      {"measurement": "toxicity", "setting": "rats", "value": "toxic to the animals"},
      {"measurement": "EGCG concentration in human plasma", "setting": "[3]; maximum possible tea drinking during the day", "value": 326, "unit": "ng/mL"},
      {"measurement": "maximum concentration of EGCG in plasma", "setting": "[3]; patients taking preparations containing green tea catechins", "value": "≤ 1", "unit": "μm"}
    ]}
  ]
}
